Results: patent US11712468B2, “CD70 combination therapy” (Argenx BV, priority 2018, dated 2023)
Like-named read-outs stand apart in the source and are kept apart here.

Experiments:
MOLM-13 AML cells = experiment: AML cell killing with NK cells, Annexin V viable cell count at 72 h (IC50 and Chou-Talalay synergy); type: cell-based; conditions: Homo sapiens
Protocol: (§1) Initially, cells from each AML cell line were treated with decitabine, cusatuzumab or venetoclax alone to determine the IC50 for each treatment. 10^5 AML cells were treated with a concentration range of cusatuzumab (0.1, 1.0 and 10 μg/ml), venetoclax (0.5 and 200 nM), decitabine (0.01-1 μM) or vehicle in the presence of CFSE-labelled NK cells derived from healthy individuals (ratio 1:1). The assay was performed in triplicate.
(§2) To determine synergy, a constant combination ratio experiment was carried out at equipotency ratio (IC501/IC502, or IC501/IC502/IC503) so that each drug contributed equally to cell killing. Combination drug dose responses were assessed in two technical replicates for every dose/dose combination as previously described (Riether et al., Sci Transl Med (2015) 7(298); 298ra119.
(§3) NOMO-1, MOLM-13, NB-4 or MV4-11 AML cell lines were treated with vehicle, decitabine, cusatuzumab or venetoclax alone, a double combination of venetoclax and decitabine, decitabine and cusatuzumab, or venetoclax and cusatuzumab, or a triple combination of decitabine, cusatuzumab and venetoclax. All combinations were tested at three high and three low concentrations (above and below the identified IC50s) and in a constant ratio. Cells were cultured in the presence of CFSE-labeled NK cells (ratio 1:1). Viable AML cell numbers were assessed 72 hours later by Annexin V staining, and the effect of drug treatment was calculated as the ratio of surviving cells to vehicle-treated cells.
(§4) The Combination Index (CI) was calculated and plotted against Fraction affected (Fa) using CompuSyn software. The resultant plot of the combination index (CI) against fraction affected (Fa) for all combinations is shown in FIG. 1, with the individual combinations shown in FIGS. 2A-2D.
(§5) Fa values of 0, 0.5, and 1 correspond to 0, 50, and 100% killed cells. A CI of <1, 1, >1 represents synergism, additivity, and antagonism, respectively. IC50s indicates Fa values reached for the combination of respective IC50 concentrations. The principles and advantages of the Fa-CI plot method of assessing synergism are provided in, for example, Chou T C, Cancer Research (2010) 70(2); 440-6 and Zhao et al. Front Biosci (Elite Ed). (2010) 2; 241-249 (each of which is incorporated herein by reference in its entirety).

MV4-11 AML cells = experiment: as above; type: cell-based; conditions: Homo sapiens
Protocol: as §1, §2, §3, §4, §5

NB4 AML cells = experiment: as above; type: cell-based
Protocol: as §1, §2, §3, §4, §5

NOMO-1 AML cells = experiment: as above; type: cell-based; conditions: Homo sapiens
Protocol: as §1, §2, §3, §4, §5

CD70 expression = experiment: CD70 mRNA and protein expression in AML cells; type: cell-based; conditions: AML cells (MOLM-13, NOMO-1) in the presence of venetoclax
Protocol: FIG. 9: CD70 mRNA expression (as percentage of housekeeping gene) following treatment with vehicle (Veh) or venetoclax (Ven) for 24 or 48 hrs.
FIG. 10: CD70 protein and mRNA expression by MOLM-13 and NOMO-1 cells in the presence (gray bars) and absence (black bars) of venetoclax. Significance was determined using a Student's t-test. MFI=mean fluorescence intensity. *** P<0.001.
The effect of venetoclax on expression of CD70 at both the mRNA and protein level was assessed.

[1] = cited from earlier work
CD70 = target: T1, CD70 (Homo sapiens, UniProt P32970); conditions: Silence et al. (2014); cited from earlier work
T1 sequence (P32970 1-193): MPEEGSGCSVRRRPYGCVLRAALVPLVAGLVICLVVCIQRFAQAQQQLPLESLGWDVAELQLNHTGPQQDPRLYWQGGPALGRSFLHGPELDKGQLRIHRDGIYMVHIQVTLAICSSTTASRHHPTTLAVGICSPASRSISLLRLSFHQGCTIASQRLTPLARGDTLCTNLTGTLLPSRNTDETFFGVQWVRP

CD27 signalling = conditions: cited from earlier work
[2] = system: CD70-expressing tumour cells; conditions: Silence et al. (2014); cited from earlier work

**Q.** With CC1(C)CCC(CN2CCN(c3ccc(C(=O)NS(=O)(=O)c4ccc(NCC5CCOCC5)c([N+](=O)[O-])c4)c(Oc4cnc5[nH]ccc5c4)c3)CC2)=C(c2ccc(Cl)cc2)C1 [venetoclax, 4-(4-{[2-(4-chlorophenyl)-4,4dimethylcyclohex-1-en-1-yl]methyl}piperazin-1-yl)-N-({3-nitro-4-[(tetrahydro-2H-pyran-4ylmethyl)amino]phenyl}sulfonyl)-2-(1H-pyrrolo[2,3-b]pyridin-5-yloxy)benzamide] as the molecule, how does the IC50 (MOLM-13 AML cells; MOLM-13, monotherapy, NK cells ratio 1:1, read-out: IC50) read?
**A.** 0.42 nM

**Q.** What about the IC50 (MV4-11 AML cells; MV4-11, monotherapy, NK cells ratio 1:1, read-out: IC50) of the same molecule?
**A.** 5 nM

**Q.** And the IC50 (NB4 AML cells; NB4, monotherapy, NK cells ratio 1:1, read-out: IC50)?
**A.** 17.3 nM

**Q.** And the IC50 (NOMO-1 AML cells; NOMO-1, monotherapy, NK cells ratio 1:1, read-out: IC50)?
**A.** 3.4 nM

**Q.** And the “CD70 expression (mRNA and protein)” value (CD70 expression)?
**A.** up-regulated

**Q.** And the Aqueous solubility [1]?
**A.** very low aqueous solubility

**Q.** What does the source list for Nc1ncn([C@H]2C[C@H](O)[C@@H](CO)O2)c(=O)n1 [decitabine]?
**A.** IC50 (MOLM-13 AML cells; MOLM-13): 0.01 nM; IC50 (MV4-11 AML cells; MV4-11): 2.36 nM; IC50 (NB4 AML cells): 4.8 nM; IC50 (NOMO-1 AML cells; NOMO-1): 0.001 nM

B1: cusatuzumab: IgG1 anti-CD70 antibody, ADCC-enhanced humanized monoclonal; VH SEQ ID NO: 4, VL SEQ ID NO: 8 (antibody, V domains shown)
VH: EVQLVESGGGLVQPGGSLRLSCAASGFTFSVYYMNWVRQAPGKGLEWVSDINNEGGTTYYADSVKGRFTISRDNSKNSLYLQMNSLRAEDTAVYYCARDAGYSNHVPIFDSWGQGTLVTVSS
VL: QAVVTQEPSLTVSPGGTVTLTCGLKSGSVTSDNFPTWYQQTPGQAPRLLIYNTNTRHSGVPDRFSGSILGNKAALTITGAQADDEAEYFCALFISNPSVEFGGGTQLTVLG
**Q.** Which results are given for B1?
**A.** Interaction of CD70 with CD27 (CD70): inhibit the interaction of CD70 with its receptor CD27; CD70-induced CD27 signalling (CD27 signalling): inhibit CD70-induced CD27 signalling; Lysis of CD70-expressing tumour cells via ADCC and CDC [2]: lyse CD70-expressing tumour cells
